In patent publication US5620958A, “Bradykinin antagonists” (Coretech, Inc., priority 1994, dated 1997):
Square brackets hold non-standard residues; d marks the D form. Peptide text beside a SMILES is read from it. Oic = O=C(O)[C@@H]1C[C@@H]2CCCC[C@@H]2N1; Hyp = O=C(O)[C@@H]1C[C@@H](O)CN1; dTic = O=C(O)[C@H]1Cc2ccccc2CN1; 2Thi = N[C@@H](Cc1cccs1)C(=O)O

Columns and labels:
BK1 receptor = biological target: T1, BK1 receptor (Oryctolagus cuniculus, UniProt P48748); assay: blood pressure response to BK1 agonist in LPS-pretreated rabbits; assay type: in vivo, rabbit; conditions: rabbits given LPS (10 μg) 20 hours before
T1 construct: when administered to an intact animal; from tissue; host or cells: whole rabbit (systemic arterial blood pressure), LPS-pretreated
T1 sequence (P48748 1-352): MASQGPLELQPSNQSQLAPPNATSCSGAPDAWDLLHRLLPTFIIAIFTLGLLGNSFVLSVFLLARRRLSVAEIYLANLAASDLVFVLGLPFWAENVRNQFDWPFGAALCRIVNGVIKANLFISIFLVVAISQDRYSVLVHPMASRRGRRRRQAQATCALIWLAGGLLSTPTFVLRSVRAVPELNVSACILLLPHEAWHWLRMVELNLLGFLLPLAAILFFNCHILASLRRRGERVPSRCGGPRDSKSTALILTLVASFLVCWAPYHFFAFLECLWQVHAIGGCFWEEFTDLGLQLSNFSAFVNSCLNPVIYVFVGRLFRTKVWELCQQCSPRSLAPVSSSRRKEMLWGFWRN

BK2 receptor [1] = biological target: T2, BK2 receptor (Oryctolagus cuniculus, UniProt Q28642); assay: blood pressure response to BK2 agonist in LPS-pretreated rabbits; assay type: in vivo, rabbit; set-up: key to OBSERVED ANTAGONIST ACTIVITY BK2: +: indicates complete blockade of the blood pressure response to the appropriate agonist; +/-: indicates partial blockade; -: indicates no observable effect at the dose indicated; conditions: rabbits given LPS (10 μg) 20 hours before
T2 construct: when administered to an intact animal; from tissue; host or cells: whole rabbit (systemic arterial blood pressure), LPS-pretreated
T2 sequence (Q28642 1-367): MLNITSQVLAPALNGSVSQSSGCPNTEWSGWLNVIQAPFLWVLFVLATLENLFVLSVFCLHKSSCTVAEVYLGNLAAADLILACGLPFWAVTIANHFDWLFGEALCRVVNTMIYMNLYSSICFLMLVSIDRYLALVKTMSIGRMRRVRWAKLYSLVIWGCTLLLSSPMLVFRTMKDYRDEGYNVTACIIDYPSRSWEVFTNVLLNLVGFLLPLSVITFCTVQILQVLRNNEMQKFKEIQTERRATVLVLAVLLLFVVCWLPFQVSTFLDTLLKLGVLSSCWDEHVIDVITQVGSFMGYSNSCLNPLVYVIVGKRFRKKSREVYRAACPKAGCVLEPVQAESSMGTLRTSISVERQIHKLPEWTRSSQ

BK2 receptor [2] = biological target: T3, BK2 receptor (Cavia porcellus, UniProt O70526); assay: guinea-pig ileum (GPI) in vitro, antagonism of BK; assay type: cell-based; conditions: Table B; read-out: pA2 GUINEA PIG ILEUM (converted)
T3 construct: tested for activity on guinea pig ileum in vitro on the standard tissue bath/strain gauge system; from tissue; host or cells: guinea pig ileum
T3 sequence (O70526 1-372): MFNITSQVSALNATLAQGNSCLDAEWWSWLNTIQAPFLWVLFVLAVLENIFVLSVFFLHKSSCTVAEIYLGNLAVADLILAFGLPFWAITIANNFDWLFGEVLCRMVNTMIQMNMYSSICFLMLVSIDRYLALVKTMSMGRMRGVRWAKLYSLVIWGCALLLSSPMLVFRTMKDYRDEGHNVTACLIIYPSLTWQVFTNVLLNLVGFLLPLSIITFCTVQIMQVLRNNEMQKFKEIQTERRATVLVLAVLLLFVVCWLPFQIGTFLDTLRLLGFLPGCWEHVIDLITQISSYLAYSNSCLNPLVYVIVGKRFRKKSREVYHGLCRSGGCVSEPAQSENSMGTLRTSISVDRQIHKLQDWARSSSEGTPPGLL
Description: Thus, in vitro studies were performed on standard assay systems, namely, guinea-pig ileum (GPI), rat uterus (RU) and rabbit jugular vein (RJV). […] The potency of each compound was assessed as a pA2 value according to the method of Arunlakshana & Schild, Br. J. Pharmacol. Chemother., 1.4:48-58 (1959). The pA2 can be defined as the negative logarithm of the molar concentration of the antagonist in the presence of which the potency of the agonist is reduced two-fold, i.e., twice the amount of agonist is required to produce a given response in the presence of, than in the absence of, the antagonist. A high potency of antagonism is indicated by a high pA2 value, i.e., a low concentration of antagonist is effective.
The percentage recovery (% Rec) was also determined for compounds with respect to each assay.
The various compounds identified in Table B below were prepared following the procedure of Example 1 with the Cys moiety introduced into the parent CP-0088 at the position indicated followed by reaction between the sulfhydryl group of the Cys residue and BMH to provide dimers as indicated. The Cys-modified monomers and the resultant dimers were tested for activity on guinea pig ileum in vitro on the standard tissue bath/strain gauge system as before.

BK2 receptor [3] = biological target: T4, BK2 receptor (Rattus norvegicus, UniProt P25023); assay: cell-based
T4 sequence (P25023 1-396): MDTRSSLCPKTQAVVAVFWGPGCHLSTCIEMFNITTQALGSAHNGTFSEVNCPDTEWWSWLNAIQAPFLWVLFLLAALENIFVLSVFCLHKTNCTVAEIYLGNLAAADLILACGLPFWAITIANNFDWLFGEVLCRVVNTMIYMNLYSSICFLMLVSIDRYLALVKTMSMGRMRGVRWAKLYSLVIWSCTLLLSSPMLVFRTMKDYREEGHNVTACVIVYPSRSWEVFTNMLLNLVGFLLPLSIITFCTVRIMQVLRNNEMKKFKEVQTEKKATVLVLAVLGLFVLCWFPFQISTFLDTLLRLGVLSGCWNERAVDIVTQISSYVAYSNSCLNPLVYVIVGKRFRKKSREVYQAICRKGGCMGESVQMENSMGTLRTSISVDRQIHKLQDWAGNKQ

Structure (SMILES)	OBSERVED ANTAGONIST ACTIVITY BK1 (BK1 receptor; 1 μg kg^-1 min^-1)	OBSERVED ANTAGONIST ACTIVITY BK1 (BK1 receptor; 3 μg kg^-1 min^-1)	OBSERVED ANTAGONIST ACTIVITY BK1 (BK1 receptor; 10 μg kg^-1 min^-1)	OBSERVED ANTAGONIST ACTIVITY BK2 (BK2 receptor [1]; 1 μg kg^-1 min^-1)	OBSERVED ANTAGONIST ACTIVITY BK2 (BK2 receptor [1]; 3 μg kg^-1 min^-1)	OBSERVED ANTAGONIST ACTIVITY BK2 (BK2 receptor [1]; 10 μg kg^-1 min^-1)	Kb (BK2 receptor [2]) [nM]	Kb (BK2 receptor [3]) [nM]
CC(C)C[C@H](NC(=O)[C@@H](Cc1ccccc1)NC(=O)[C@H](CO)NC(=O)[C@H](Cc1ccccc1)NC(=O)CNC(=O)[C@@H]1C[C@@H](O)CN1C(=O)[C@@H]1CCCN1C(=O)[C@H](CSC1CC(=O)N(CCCCCCN2C(=O)CC(SC[C@H](NC(=O)[C@H](Cc3ccccc3)NC(=O)CNC(=O)[C@@H]3C[C@@H](O)CN3C(=O)[C@@H]3CCCN3C(=O)[C@H](CCCNC(=N)N)NC(=O)[C@H](N)CCCNC(=N)N)C(=O)N[C@H](Cc3ccccc3)C(=O)N[C@@H](CC(C)C)C(=O)N[C@@H](CCCNC(=N)N)C(=O)O)C2=O)C1=O)NC(=O)[C@H](N)CCCNC(=N)N)C(=O)O (stereo partly shown) [CP-0386] (HELM PEPTIDE1{[dR].R.P.[Hyp].G.F.C.[dF].L.R}|PEPTIDE2{[dR].C.P.[Hyp].G.F.S.[dF].L}|CHEM1{[O=C1CC([*:1])C(=O)N1CCCCCCN1C(=O)CC([*:2])C1=O]}$PEPTIDE1,CHEM1,7:R3-1:R1|PEPTIDE2,CHEM1,2:R3-1:R2$$$V2.0; N-terminus and C-terminus assumed)	+	+	+	+	+	+		
CC(C)C[C@H](NC(=O)[C@@H](Cc1ccccc1)NC(=O)[C@H](CO)NC(=O)[C@H](Cc1ccccc1)NC(=O)CNC(=O)[C@@H]1C[C@@H](O)CN1C(=O)[C@@H]1CCCN1C(=O)[C@H](CCCNC(=N)N)NC(=O)[C@H](N)CS)C(=O)N[C@@H](CCCNC(=N)N)C(=O)O [CP-0149] (HELM PEPTIDE1{[dC].R.P.[Hyp].G.F.S.[dF].L.R}$$$$V2.0)							200	
CC(C)C[C@H](NC(=O)[C@@H](Cc1ccccc1)NC(=O)[C@H](CO)NC(=O)[C@H](Cc1ccccc1)NC(=O)CNC(=O)[C@H](CS)NC(=O)[C@@H]1CCCN1C(=O)[C@H](CCCNC(=N)N)NC(=O)[C@H](N)CCCNC(=N)N)C(=O)N[C@@H](CCCNC(=N)N)C(=O)O [CP-0143] (HELM PEPTIDE1{[dR].R.P.C.G.F.S.[dF].L.R}$$$$V2.0)							200	
CC(C)C[C@H](NC(=O)[C@@H](Cc1ccccc1)NC(=O)[C@H](CSC1CC(=O)N(CCCCCCCCCN2C(=O)CC(SC[C@H](NC(=O)[C@H](Cc3ccccc3)NC(=O)CNC(=O)[C@@H]3C[C@@H](O)CN3C(=O)[C@@H]3CCCN3C(=O)[C@H](CCCNC(=N)N)NC(=O)[C@H](N)CCCNC(=N)N)C(=O)N[C@H](Cc3ccccc3)C(=O)N[C@@H](CC(C)C)C(=O)N[C@@H](CCCNC(=N)N)C(=O)O)C2=O)C1=O)NC(=O)[C@H](Cc1ccccc1)NC(=O)CNC(=O)[C@@H]1C[C@@H](O)CN1C(=O)[C@@H]1CCCN1C(=O)[C@H](CCCNC(=N)N)NC(=O)[C@H](N)CCCNC(=N)N)C(=O)N[C@@H](CCCNC(=N)N)C(=O)O (stereo partly shown) [CP-0229] (HELM PEPTIDE1{[dR].R.P.[Hyp].G.F.C.[dF].L.R}|PEPTIDE2{[dR].R.P.[Hyp].G.F.C.[dF].L.R}|CHEM1{[O=C1CC([*:1])C(=O)N1CCCCCCCCCN1C(=O)CC([*:2])C1=O]}$PEPTIDE1,CHEM1,7:R3-1:R1|PEPTIDE2,CHEM1,7:R3-1:R2$$$V2.0)								0.501
N=C(N)NCCC[C@@H](N)C(=O)N[C@@H](CCCNC(=N)N)C(=O)N1CCC[C@H]1C(=O)N1C[C@H](O)C[C@H]1C(=O)NCC(=O)N[C@@H](Cc1cccs1)C(=O)N[C@@H](CO)C(=O)N1Cc2ccccc2C[C@@H]1C(=O)N1[C@H](C(=O)O)C[C@@H]2CCCC[C@@H]21 [CP-0345] (H-[dR]RP[Hyp]G[2Thi]S[dTic][Oic]-OH; N-terminus and C-terminus assumed)	-	+	+	-	+/-	+		
CC(C)C[C@H](NC(=O)[C@@H](Cc1ccccc1)NC(=O)[C@H](CSC1CC(=O)N(CCCCCCCCCCN2C(=O)CC(SC[C@H](NC(=O)[C@H](Cc3ccccc3)NC(=O)CNC(=O)[C@@H]3C[C@@H](O)CN3C(=O)[C@@H]3CCCN3C(=O)[C@H](CCCNC(=N)N)NC(=O)[C@H](N)CCCNC(=N)N)C(=O)N[C@H](Cc3ccccc3)C(=O)N[C@@H](CC(C)C)C(=O)N[C@@H](CCCNC(=N)N)C(=O)O)C2=O)C1=O)NC(=O)[C@H](Cc1ccccc1)NC(=O)CNC(=O)[C@@H]1C[C@@H](O)CN1C(=O)[C@@H]1CCCN1C(=O)[C@H](CCCNC(=N)N)NC(=O)[C@H](N)CCCNC(=N)N)C(=O)N[C@@H](CCCNC(=N)N)C(=O)O (stereo partly shown) [CP-0230] (HELM PEPTIDE1{[dR].R.P.[Hyp].G.F.C.[dF].L.R}|PEPTIDE2{[dR].R.P.[Hyp].G.F.C.[dF].L.R}|CHEM1{[O=C1CC([*:1])C(=O)N1CCCCCCCCCCN1C(=O)CC([*:2])C1=O]}$PEPTIDE1,CHEM1,7:R3-1:R1|PEPTIDE2,CHEM1,7:R3-1:R2$$$V2.0)								2.51
N=C(N)NCCC[C@@H](N)C(=O)N[C@@H](CCCNC(=N)N)C(=O)N1CCC[C@H]1C(=O)N1C[C@H](O)C[C@H]1C(=O)NCC(=O)N[C@@H](Cc1ccccc1)C(=O)N[C@@H](CO)C(=O)N1Cc2ccccc2C[C@@H]1C(=O)N1[C@H](C(=O)O)C[C@@H]2CCCC[C@@H]21 [CP-0267] (HELM PEPTIDE1{[dR].R.P.[Hyp].G.F.S.[O=C([C@H]1Cc2ccccc2CN1[*:1])[*:2]].[O=C(O)[C@@H]1C[C@@H]2CCCC[C@@H]2N1[*:1]]}$$$$V2.0)	-	-	+	-	-	+/-		
CC(C)C[C@H](NC(=O)[C@@H]1CCCN1C(=O)[C@H](CO)NC(=O)[C@H](Cc1ccccc1)NC(=O)CNC(=O)[C@@H]1CCCN1C(=O)[C@@H]1CCCN1C(=O)[C@H](CCCNC(=N)N)NC(=O)[C@@H](N)CCCCN)C(=O)O [CP-0298, Lys^0Arg^1Pro^2Pro^3Gly^4Phe^5Ser^6Pro^7Leu^8, reference compound]	+	+	+	-	-	-		
